Test results from article PMC5515969, “Effects of 31 FDA approved small-molecule kinase inhibitors on isolated rat liver mitochondria” (Archives of Toxicology, 2016).
Where two headings read alike, the source gives them in different places.

Columns and labels:
RCC V = RCC V activity in submitochondrial particles; assay type: biochemical, rat; conditions: for RCC activity V: 15 min, DMSO-treated = 100; for RCC V at 5XCmax: key: 0 indicates that the drug had no effects (negative)
Description: (§1) KIs were incubated with submitochondrial particles (1 mg/ml) for 15 min and then RCC I–V activities measured. […] The activities of DMSO-treated samples (controls) were set as 1. […] The difference between the activity from rotenone-containing buffer and rotenone-absent buffer was considered as RCC I activity. […] For measuring RCC I/V and II activity, the changes in absorbance at 340 and 600 nm, respectively, were determined every 1 min for 6 min. For measuring RCC III and RCC IV, the changes in absorbance at 550 nm were measured every 10 s for 2 min.

[1] = parameters: method as in product labeling; conditions: ref product labeling, cited from earlier work
RCC II = target: T1, RCC II (Rattus norvegicus, UniProt P21913+Q641Z9+Q6PCT8+Q920L2); assay: RCC II activity in submitochondrial particles; assay type: biochemical; parameters: key: activity relative to DMSO-treated controls (control set as 1 = 100%); conditions: relative to DMSO treated samples
T1 construct: Submitochondrial particles were prepared by subjecting the intact mitochondria to three successive freeze–thaw cycles; from tissue; host or cells: rat liver mitochondria, used as submitochondrial particles
Description: as §1

[2] = system: isolated rat liver mitochondria; assay: Mitochondrial inner membrane potential (MMP), Rhodamine 123; assay type: biochemical; conditions: difference in signal between KI and DMSO treated samples at the end of experiments
Description: Fig. 3 KI effects on mitochondrial inner membrane potential (MMP). […] In a, c, data are means and standard derivations from three separate experiments. *p < 0.05 as compared to DMSO-treated samples at the end of experiments. In b, data are means of two independent experiments

RCC III = RCC III activity in submitochondrial particles; assay type: biochemical, rat; parameters: key to RCC III at 100XCmax: activity relative to DMSO-treated controls (control set as 1 = 100%); conditions: for RCC activity III: 15 min, DMSO-treated = 100
Description: as §1

RCC IV = RCC IV activity in submitochondrial particles; assay type: biochemical, rat; parameters: key to RCC IV at 50XCmax / RCC IV at 100XCmax: activity relative to DMSO-treated controls (control set as 1 = 100%); conditions: for RCC activity IV: 15 min, DMSO-treated = 100
Description: as §1

[3] = system: isolated rat liver mitochondria; conditions: positive control alamethicin treated samples
[4] = cited from earlier work
[5] = system: isolated rat liver mitochondria; assay: Mitochondrial ROS production (CM-H2DCFDA)
[6] = system: isolated rat liver mitochondria; assay: Mitochondrial swelling (absorbance at 535 nm); assay type: biochemical; for Swelling 5XCmax: key: 0 indicates that the drug had no effects (negative)

T1 sequence (Q920L2 35-656): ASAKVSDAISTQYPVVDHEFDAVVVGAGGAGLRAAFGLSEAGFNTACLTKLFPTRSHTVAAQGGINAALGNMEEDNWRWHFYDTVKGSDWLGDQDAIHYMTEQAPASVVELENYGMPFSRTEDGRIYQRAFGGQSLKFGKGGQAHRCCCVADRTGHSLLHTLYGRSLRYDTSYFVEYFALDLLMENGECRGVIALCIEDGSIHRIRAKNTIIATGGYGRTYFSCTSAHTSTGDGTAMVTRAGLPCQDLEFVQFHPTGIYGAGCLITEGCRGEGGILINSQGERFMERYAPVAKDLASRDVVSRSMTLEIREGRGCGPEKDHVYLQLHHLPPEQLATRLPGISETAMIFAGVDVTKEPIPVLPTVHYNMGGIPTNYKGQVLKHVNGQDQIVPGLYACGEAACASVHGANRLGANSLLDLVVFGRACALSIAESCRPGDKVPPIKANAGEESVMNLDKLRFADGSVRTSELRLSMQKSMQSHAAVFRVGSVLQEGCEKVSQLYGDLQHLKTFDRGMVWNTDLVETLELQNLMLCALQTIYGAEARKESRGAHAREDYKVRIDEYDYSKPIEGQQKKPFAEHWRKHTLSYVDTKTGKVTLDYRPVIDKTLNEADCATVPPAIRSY
T1 sequence (P21913 31-282): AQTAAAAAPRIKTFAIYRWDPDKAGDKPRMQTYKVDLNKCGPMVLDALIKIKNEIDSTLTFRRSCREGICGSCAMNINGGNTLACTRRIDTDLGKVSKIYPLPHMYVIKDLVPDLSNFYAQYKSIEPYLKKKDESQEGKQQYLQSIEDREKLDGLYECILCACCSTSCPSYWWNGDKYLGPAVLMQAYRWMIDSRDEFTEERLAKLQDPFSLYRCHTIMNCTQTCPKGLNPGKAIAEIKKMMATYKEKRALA
T1 sequence (Q641Z9 1-169): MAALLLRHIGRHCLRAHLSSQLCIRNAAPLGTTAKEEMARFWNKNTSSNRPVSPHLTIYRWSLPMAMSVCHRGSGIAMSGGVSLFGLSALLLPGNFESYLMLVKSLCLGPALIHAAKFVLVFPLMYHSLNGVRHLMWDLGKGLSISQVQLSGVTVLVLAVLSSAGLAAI
T1 sequence (Q6PCT8 57-159): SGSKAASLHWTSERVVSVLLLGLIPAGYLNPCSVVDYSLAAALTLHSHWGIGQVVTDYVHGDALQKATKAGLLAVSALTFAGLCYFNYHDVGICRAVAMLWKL

SMILES: C[C@@H](Oc1cc(-c2cnn(C3CCNCC3)c2)cnc1N)c1c(Cl)ccc(F)c1Cl [Crizotinib]
- RCC V at 5XCmax (RCC V; 5XCmax, relative to DMSO treated samples): 0
- RCC activity V (RCC V; 20-fold Cmax): 95.77 ± 7.64 % of control
- RCC activity V (RCC V; 30-fold Cmax): 98.65 ± 2.98 % of control
- RCC activity V (RCC V; 50-fold Cmax): 91.95 ± 5.63 % of control
- RCC V at 50XCmax (RCC V; 50XCmax, relative to DMSO treated samples): 0
- Labeling for cardiotoxicity ([1]; BBW: black box warning, W&P: Warnings and Precautions): W&P: QT Interval Prolongation; Bradycardia
- Potential for cardiotoxicity (based on labeling) [1]: 1
- RCC II at 1.0XCmax (RCC II; 1.0XCmax): 0
- RCC II at 2.5XCmax (RCC II; 2.5XCmax): 0
- RCC II at 5XCmax (RCC II; 5XCmax): 0
- RCC II at 10XCmax (RCC II; 10XCmax): 0
- RCC II at 20XCmax (RCC II; 20XCmax): 0
- RCC II at 30XCmax (RCC II; 30XCmax): 0
- RCC II at 50XCmax (RCC II; 50XCmax): 0
- RCC II at 100XCmax (RCC II; 100XCmax): 0
- MMP measured by Rhodamine 123 at 1XCmax ([2]; 1XCmax): 0
- MMP measured by Rhodamine 123 at 2.5XCmax ([2]; 2.5XCmax): 0
- MMP measured by Rhodamine 123 at 5XCmax ([2]; 5XCmax): 0
- MMP measured by Rhodamine 123 at 10XCmax ([2]; 10XCmax): 0
- MMP measured by Rhodamine 123 at 20XCmax ([2]; 20XCmax): 0
- MMP measured by Rhodamine 123 at 30XCmax ([2]; 30XCmax): 0
- MMP measured by Rhodamine 123 at 50XCmax ([2]; 50XCmax): 0
- MMP measured by Rhodamine 123 at 100XCmax ([2]; 100XCmax): 0
- RCC activity III (RCC III; 20-fold Cmax): 99.67 ± 8.65 % of control
- RCC activity III (RCC III; 30-fold Cmax): 106.26 ± 5.79 % of control
- RCC activity III (RCC III; 50-fold Cmax): 98.02 ± 7.16 % of control
- RCC activity III (RCC III; 100-fold Cmax): 103.28 ± 2.85 % of control
- RCC III at 100XCmax (RCC III; 100XCmax, relative to DMSO treated samples): 0
- RCC activity IV (RCC IV; 20-fold Cmax): 94.03 ± 9.67 % of control
- RCC activity IV (RCC IV; 30-fold Cmax): 96.65 ± 4.14 % of control
- RCC activity IV (RCC IV; 50-fold Cmax): 103.77 ± 5.67 % of control
- RCC IV at 50XCmax (RCC IV; 50XCmax, relative to DMSO treated samples, in %): 0
- RCC activity IV (RCC IV; 100-fold Cmax): 96.60 ± 8.40 % of control
- Cytochrome c release 1XCmax ([3]; 1XCmax): 0
- Cytochrome c release 2.5XCmax ([3]; 2.5XCmax): 0
- Cytochrome c release 5XCmax ([3]; 5XCmax): 0
- Cytochrome c release 10XCmax ([3]; 10XCmax): 0
- Cytochrome c release 20XCmax ([3]; 20XCmax): 0
- Cytochrome c release 30XCmax ([3]; 30XCmax): 0
- Cytochrome c release 50XCmax ([3]; 50XCmax): 12.29±1.27 percentage of the positive control group
- Cytochrome c release 100XCmax ([3]; 100XCmax): 24.66±1.67 percentage of the positive control group
- DILI potential (based on labeling) ([4]; 1 = DILI positive, 0 = negative, ref product labeling): 1
- Labeling for DILI ([4]; BBW: black box warning, W&P: Warnings and Precautions, ref product labeling): W&P: fatal DILI
- labeling for DILI ([4]; W&P warnings and precautions, BBW black box warnings, ref FDA product labeling): W&P: fatal DILI
- DILI potential (based on labeling) ([4]; ref FDA product labeling): 1
- ROS measured by CM-H2DCFDA at 1XCmax ([5]; 1XCmax, DMSO treated samples set as 1): 0
- ROS measured by CM-H2DCFDA at 2.5XCmax ([5]; 2.5XCmax, DMSO treated samples set as 1): 0
- ROS measured by CM-H2DCFDA at 5XCmax ([5]; 5XCmax, DMSO treated samples set as 1): 0
- ROS measured by CM-H2DCFDA at 10XCmax ([5]; 10XCmax, DMSO treated samples set as 1): 0
- ROS measured by CM-H2DCFDA at 20XCmax ([5]; 20XCmax, DMSO treated samples set as 1): 1.46±0.08
- ROS measured by CM-H2DCFDA at 30XCmax ([5]; 30XCmax, DMSO treated samples set as 1): 1.75±0.32
- ROS measured by CM-H2DCFDA at 50XCmax ([5]; 50XCmax, DMSO treated samples set as 1): 2.06±0.27
- ROS measured by CM-H2DCFDA at 100XCmax ([5]; 100XCmax, DMSO treated samples set as 1): 2.74±0.18
- effect on ROS production ([5]; highest tested concentrations): significantly ROS production
- Swelling 1XCmax ([6]; 1XCmax, difference in signal between KI and DMSO treated samples at the end of experiments): 0
- Swelling 2.5XCmax ([6]; 2.5XCmax, difference in signal between KI and DMSO treated samples at the end of experiments): 0
- Swelling 5XCmax ([6]; 5XCmax, difference in signal between KI and DMSO treated samples at the end of experiments): 0
- Swelling 10XCmax ([6]; 10XCmax, difference in signal between KI and DMSO treated samples at the end of experiments): 0
- Swelling 20XCmax ([6]; 20XCmax, difference in signal between KI and DMSO treated samples at the end of experiments): 0
- Swelling 30XCmax ([6]; 30XCmax, difference in signal between KI and DMSO treated samples at the end of experiments): 0
- Swelling 50XCmax ([6]; 50XCmax, difference in signal between KI and DMSO treated samples at the end of experiments): 0
- Swelling 100XCmax ([6]; 100XCmax, difference in signal between KI and DMSO treated samples at the end of experiments): 0.19±0.03
- effect on mitochondrial swelling ([6]; up to 100-fold Cmax or highest testable concentration, 25 µM calcium chloride): significant mitochondrial swelling
